In experiment [1] the target is T1, F508del-CFTR (Homo sapiens, UniProt P13569, DEL508-508).
T1 construct: expressed in transfected cells
Put plainly: Live-cell photoaffinity labeling, streptavidin pull-down and CFTR Western blot. The class given is binding. Particulars: F508del-CFTR CFBE41o- cells, 25-fold excess (25 μM) competitor 30 min before probe (1 μM). The method, then: Wt-CFTR or F508del-CFTR CFBE41o- cells were plated at 2–2.5 × 10^6 cells/plate in 6 cm diameter dishes. The day after, sodium butyrate (5–2.5 mM) was added for 24 h; next, the medium was exchanged with fresh one supplemented with DMSO (0.25%) (276855, Sigma-Aldrich) or probe (1 μM). For competition experiments, a 25-fold excess of ARN23765 (25 μM) was added 30 min before probe’s addition. For the analysis of “corrected” F508del-CFTR, F508del-CFTR CFBE41o- cells were kept at 27 °C for 24 h before adding the probes. Probes were incubated with cells for 2 h, then the medium was removed, and plates were washed twice with phosphate buffer saline (PBS). Cells were placed on ice and irradiated for 5 min at a wavelength of 365 nm using a 100-W UV-lamp (95–0127–02 model B100-AP, Analytik Jena). Cells were harvested with trypsin (T4299, Sigma-Aldrich), washed with PBS (D8537, Sigma-Aldrich), and pellets were stored at −80 °C until used, centrifuged at 300 × g and washed twice with PBS (D8537, Sigma-Aldrich). Pellets from in-cell photoaffinity labeling with alkyne-probes (PAP_1 and PAP_2) were lysed in PBS plus protease inhibitor cocktail (78429, Thermo Scientific) by sonication. The suspension was centrifuged at 800 × g for 20 min at 4 °C to discard nuclei and cell debris. The total extracted proteins were quantified with the bicinchoninic acid (BCA) protein assay (23225, Thermo Scientific) and subjected to CuAAC before proceeding with pull-down. Pellets from in-cell photoaffinity labeling with desthio-biotinylated (DS-biot) probes (PAP_1 DS-biot, PAP_2 DS-biot, PAP_N1 DS-biot, PAP_N2 DS-biot) were lysed with a modified RIPA buffer [50 mM tris-HCl pH 8, 150 mM NaCl, 0.5% Triton-X100, 0.2% SDS, 1 mM ethylenediaminetetraacetic acid (EDTA)] supplemented with protease inhibitor cocktail and centrifuged at 10.000× g for 10 min. The protein content in the supernatant was quantified by BCA protein assay. Protein lysate (200 μg) was diluted to 800 μL and the Triton-X100 percentage was reduced to 0.2% before proceeding to pull-down.
High capacity streptavidin agarose (20359, Thermo Scientific) (25 μL) was added to PAP-labeled cell extracts for 1 h at room temperature under gentle rotation. The streptavidin beads were collected by centrifugation and washed four times with lysis buffer. Resin-bound proteins were eluted with 45 μL of 5 mM biotin (B4501, Sigma-Aldrich) for 30 min at room temperature and analyzed with Western blot for CFTR expression. Input samples (4 and 8 μg for wt-CFTR and F508del-CFTR CFBE41o-, respectively) were collected immediately before incubation with streptavidin resin. Input and pulled-down samples were analyzed with WB as described in the supplementary methods.
On the technique in general: Immunoblotting shows a protein as a band on a membrane.

The target of experiment [2] is T1, F508del-CFTR. The arrangement: method as in PMID 32128418. The note with it: bronchial epithelial cells from F508del-CFTR CF individuals; cited from earlier work.
The target of experiment [3] is T1, F508del-CFTR. Put plainly: HS-YFP functional assay in CFBE41o- cells stably overexpressing F508del-CFTR. It counts as cell-based. Particulars: 24 h treatment. On the procedure:
These analogues were tested in the functional assay on the human bronchial epithelia-derived cell line, CFBE41o-, which stably overexpresses F508del-CFTR and the halide-sensitive yellow fluorescent protein (HS-YFP).[31] […]
HS-YFP-based assay for CFTR activity
Twenty-four hours after seeding on 96-well plates, CFBE41o- cells stably over-expressing F508del-CFTR and the HS-YFP were treated with test compounds at different concentrations in the 3 nM-10 µM range.1 Cells treated with vehicle alone (DMSO) and with ARN23765, respectively, served as negative and positive controls. The following day, cells were washed with PBS containing (in mM) 137 NaCl, 2.7 KCl, 8.1 Na2HPO4, 1.5 KH2PO4, 1.0 CaCl2, and 0.5 MgCl2. Cells were then incubated for 25 min with […] of PBS plus forskolin (20 µM) and VX-770 (1 µM) to maximally stimulate F508del-CFTR. Cells were then transferred to a microplate reader (FluoStar Galaxy; BMG Labtech, Offenburg, Germany) for CFTR activity determination. The plate reader was equipped with high-quality excitation (HQ500/20X: 500 ± 10 nm) and emission (HQ535/30M: 535 ± 15 nm) filters for YFP (Chroma Technology). Each assay comprised a continuous 14 s fluorescence reading, 2 s before and 12 s after injection of […] of an iodide-containing solution (PBS with Cl- replaced by I-; final I- concentration […]). Data were normalized to the initial background-subtracted fluorescence. To determine I- influx rate, the final 11 s of the data for each well were fitted with an exponential function to extrapolate initial slope (dF/dt). Reproducibility of results was confirmed by performing three independent experiments. […]

pEC50: −log10 of the molar value.

These results are taken from paper PMC11873939, “Target Identification with Live-Cell Photoaffinity Labeling and Mechanism of Action Elucidation of ARN23765, a Highly Potent CFTR Corrector” (Journal of Medicinal Chemistry, 2025).

T1 sequence (P13569 with tags, fused parts or gaps DEL508-508): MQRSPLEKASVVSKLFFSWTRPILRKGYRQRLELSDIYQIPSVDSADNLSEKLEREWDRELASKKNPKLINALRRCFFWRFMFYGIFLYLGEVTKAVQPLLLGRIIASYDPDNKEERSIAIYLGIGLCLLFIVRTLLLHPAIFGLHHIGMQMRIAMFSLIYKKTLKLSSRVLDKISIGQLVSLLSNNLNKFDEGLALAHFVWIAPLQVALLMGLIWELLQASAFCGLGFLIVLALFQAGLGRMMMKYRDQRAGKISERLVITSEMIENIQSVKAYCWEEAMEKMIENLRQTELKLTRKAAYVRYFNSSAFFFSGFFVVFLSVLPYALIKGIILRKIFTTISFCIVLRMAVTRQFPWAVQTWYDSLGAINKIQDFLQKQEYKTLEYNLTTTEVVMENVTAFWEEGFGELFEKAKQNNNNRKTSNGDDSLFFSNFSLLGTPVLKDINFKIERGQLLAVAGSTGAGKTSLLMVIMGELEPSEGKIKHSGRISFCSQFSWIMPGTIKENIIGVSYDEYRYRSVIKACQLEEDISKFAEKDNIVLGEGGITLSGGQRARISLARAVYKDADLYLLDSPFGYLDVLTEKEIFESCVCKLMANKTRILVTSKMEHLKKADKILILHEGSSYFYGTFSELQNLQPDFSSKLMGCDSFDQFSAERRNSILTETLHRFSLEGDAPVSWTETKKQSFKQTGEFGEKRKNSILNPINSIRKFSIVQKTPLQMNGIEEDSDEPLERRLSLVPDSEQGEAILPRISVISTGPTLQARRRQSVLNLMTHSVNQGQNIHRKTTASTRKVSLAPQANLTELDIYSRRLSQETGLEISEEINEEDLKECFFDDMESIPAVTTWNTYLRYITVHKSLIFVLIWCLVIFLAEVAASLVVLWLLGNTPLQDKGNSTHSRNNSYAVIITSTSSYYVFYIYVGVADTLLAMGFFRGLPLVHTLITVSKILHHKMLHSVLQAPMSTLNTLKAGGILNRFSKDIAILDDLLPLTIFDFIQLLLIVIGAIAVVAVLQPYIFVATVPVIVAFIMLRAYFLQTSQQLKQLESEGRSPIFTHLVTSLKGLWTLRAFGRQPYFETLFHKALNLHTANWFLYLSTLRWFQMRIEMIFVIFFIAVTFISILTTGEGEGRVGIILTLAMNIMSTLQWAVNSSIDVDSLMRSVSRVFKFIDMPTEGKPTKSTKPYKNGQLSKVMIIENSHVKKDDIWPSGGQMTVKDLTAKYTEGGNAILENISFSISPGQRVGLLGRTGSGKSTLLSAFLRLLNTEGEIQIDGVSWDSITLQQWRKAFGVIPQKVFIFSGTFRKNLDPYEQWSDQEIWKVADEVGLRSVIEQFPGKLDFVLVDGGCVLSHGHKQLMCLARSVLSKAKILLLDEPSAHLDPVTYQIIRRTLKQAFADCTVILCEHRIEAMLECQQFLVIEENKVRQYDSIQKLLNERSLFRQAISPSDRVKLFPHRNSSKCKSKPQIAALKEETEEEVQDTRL

Consider `CN(C(=O)c1cccc(-n2nc(C(F)(F)F)c3c2[C@@H](Oc2ccc(C(=O)O)cc2)CCC3)c1)c1ccc2c(c1)OC(F)(F)O2` [ARN23765], for which the “Competition: CFTR recovered in pull-down by PAP_1 DS-biot or PAP_2 DS-biot after preincubation with competitor” value in experiment [1] is reported as “markedly reduced amount of the recovered protein”. Besides, the “Potency in rescuing CFTR function” value in experiment [2] was “subnanomolar”. The pEC50 (as a rule, the EC50 on a negative log10 scale, so that one unit is a factor of ten) in experiment [3] (3 nM-10 µM range) was over 8.52. For the same compound, the “HS-YFP assay in CFBE41o- cells Emax” value in experiment [3] (values normalized to DMSO-incubated cells) is given as 2.7.
